According to US10550110B2, “Tetrahydroquinoline sulfonamide derivatives as inverse agonists of retinoid-related orphan receptor gamma (ROR gamma (t))” (GALDERMA RESEARCH & DEVELOPMENT, priority 2014, dated 2020):

Target: T1, ROR gamma ligand-binding domain (LBD) (hRORg) (Homo sapiens, UniProt P51449)
T1 construct: expressed in transfected cells; host or cells: HG5LN (HeLa line with GAL4-responsive luciferase reporter)
T1 sequence (P51449 269-508 limits assumed): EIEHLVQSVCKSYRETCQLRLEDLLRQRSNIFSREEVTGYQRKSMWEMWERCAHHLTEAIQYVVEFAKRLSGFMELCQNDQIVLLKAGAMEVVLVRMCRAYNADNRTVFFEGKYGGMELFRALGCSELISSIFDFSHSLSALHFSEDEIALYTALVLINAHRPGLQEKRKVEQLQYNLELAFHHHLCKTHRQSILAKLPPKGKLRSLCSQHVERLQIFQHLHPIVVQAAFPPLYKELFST
Assay: GAL4-RORγ transactivation (luciferase reporter, HG5LN HeLa line)
Type: cell-based
Settings: HG5LN HeLa line with GAL4 DBD fused to ROR gamma LBD, 18 hours incubation
Source text: GAL4—RORγ Transactivation
The RORγ transactivation model was developed from the line HG5LN, which is a HeLa line that stably expresses a luciferase reporter gene controlled by a pentamer of the GAL4 recognition domain of yeast and of a β-globin promoter. The HG5LN line was stably transfected by the DNA-binding domain (DBD) of GAL4 fused to the ROR gamma ligand-binding domain (LBD). Molecules that inhibit the ROR gamma constitutive activity reduce the luciferase expression, thus leading to a reduction in the emitted luminescence.
The cells are seeded in 384-well plates (5000 cells in 45 μL/well of culture medium containing 10% fetal calf serum) and incubated for 4 hours at 37° C., 5% CO2. 5 μL of the test molecules (compounds described in the tables described above) are then added to each well and the plates are incubated for 18 hours at a temperature of 37° C. under 5% of CO2. 20 μL of luciferase substrate (Promega) are added to each well and the luminescence emitted is read by a microplate reader.
The luminescence units (“RLU”) are normalized by positive controls (“POS” containing a saturated concentration of N-(2,2,2-trifluoroethyl)-N-[4-[2,2,2-trifluoro-1-hydroxy-1-(trifluoromethyl)ethyl]phenyl])benzenesulfonamide and negative controls (“NEG” containing DMSO): % inhibition=((RLU-NEG)*100)/(POS-NEG). The IC50 values are calculated from a 4-parameter logistic model using the XLFit software (IDBS).

Row | SMILES | IC50 [nM]
1 | CCc1ccc(N(CC(C)C)S(=O)(=O)c2ccc3c(c2)C(O)CCN3C2CCNC(=O)C2)cc1 (single isomer, unassigned) [Compound 52, 4-hydroxy-1-(2-oxopiperidin-4-yl)-1,2,3,4-tetrahydroquinoline-6-sulfonic acid (4-ethylphenyl)isobutylamide] | > 1000
2 | CCc1ccc(N(CC(C)C)S(=O)(=O)c2ccc3c(c2)C(=O)CCN3CC2CCC(=O)N2)cc1 (stereo not drawn) [Compound 3, 4-oxo-1-(5-oxopyrrolidin-2-ylmethyl)-1,2,3,4-tetrahydroquinoline-6-sulfonic acid (4-ethylphenyl)isobutylamide] | > 1000
3 | CCc1ccc(N(CC(C)C)S(=O)(=O)c2ccc3c(c2)C(=O)CCN3CC2CCN(C(=O)OC(C)(C)C)CC2)cc1 [Compound 5, tert-butyl ester of 4-{6-[(4-ethylphenyl)isobutylsulfamoyl]-4-oxo-3,4-dihydro-2H-quinolin-1-ylmethyl}piperidine-1-carboxylic acid] | > 1000
4 | CCc1ccc(N(CC(C)C)S(=O)(=O)c2ccc3c(c2)C(=O)CCN3CC2(C)CCOCC2)cc1 [Compound 6, 1-(4-methyltetrahydropyran-4-ylmethyl)-4-oxo-1,2,3,4-tetrahydroquinoline-6-sulfonic acid (4-ethylphenyl)isobutylamide] | 100 to 1000
5 | CCc1ccc(N(CC(C)C)S(=O)(=O)c2ccc3c(c2)C(=O)CCN3CC2CCS(=O)(=O)CC2)cc1 [Compound 7, 1-(1,1-dioxohexahydro-1λ^6-thiopyran-4-ylmethyl)-4-oxo-1,2,3,4-tetrahydroquinoline-6-sulfonic acid (4-ethylphenyl)isobutylamide] | > 1000
6 | CCc1ccc(N(CC(C)C)S(=O)(=O)c2ccc3c(c2)C(=O)CCN3Cc2ccc(C(=O)NO)cc2)cc1 [Compound 8, 4-{6-[(4-ethylphenyl)isobutylsulfamoyl]-4-oxo-3,4-dihydro-2H-quinolin-1-ylmethyl}-N-hydroxybenzamide] | > 1000
7 | CCc1ccc(N(CC(C)C)S(=O)(=O)c2ccc3c(c2)C(O)CCN3C2CCN(C(=O)OC(C)(C)C)CC2)cc1 (stereo not drawn) [Compound 13, tert-butyl ester of 4-{6-[(4-ethylphenyl)isobutylsulfamoyl]-4-hydroxy-3,4-dihydro-2H-quinolin-1-yl}piperidine-1-carboxylic acid] | > 1000

More lines, now with the values ahead:

Row | IC50 [nM] | SMILES
8 | 100 to 1000 | CCc1ccc(N(CC(C)C)S(=O)(=O)c2ccc3c(c2)C(O)CCN3CC2CCC(O)CC2)cc1 (single isomer, unassigned) [Compound 42, 4-hydroxy-1-(4-hydroxycyclohexylmethyl)-1,2,3,4-tetrahydroquinoline-6-sulfonic acid (4-ethylphenyl)isobutylamide]
9 | 100 to 1000 | CCc1ccc(N(CC(C)C)S(=O)(=O)c2ccc3c(c2)C(O)CCN3CC2CCC(O)CC2)cc1 (single isomer, unassigned) [Compound 43, 4-hydroxy-1-(4-hydroxycyclohexylmethyl)-1,2,3,4-tetrahydroquinoline-6-sulfonic acid (4-ethylphenyl)isobutylamide]
10 | > 1000 | CCc1ccc(N(CC(C)C)S(=O)(=O)c2ccc3c(c2)C(O)CCN3C2CCNC(=O)C2)cc1 (single isomer, unassigned) [Compound 53, 4-hydroxy-1-(2-oxopiperidin-4-yl)-1,2,3,4-tetrahydroquinoline-6-sulfonic acid (4-ethylphenyl)isobutylamide]
11 | 100 to 1000 | CCc1ccc(N(CC(C)C)S(=O)(=O)c2ccc3c(c2)C(O)CCN3CC2CCC(=O)N2)cc1 (stereo not drawn) [Compound 9, 4-hydroxy-1-(5-oxopyrrolidin-2-ylmethyl)-1,2,3,4-tetrahydroquinoline-6-sulfonic acid (4-ethylphenyl)isobutylamide]
12 | > 1000 | CCc1ccc(N(CC(C)C)S(=O)(=O)c2ccc3c(c2)C(O)CCN3CC2CCN(C(=O)OC(C)(C)C)CC2)cc1 (stereo not drawn) [Compound 12, tert-butyl ester of 4-{6-[(4-ethylphenyl)isobutylsulfamoyl]-4-hydroxy-3,4-dihydro-2H-quinolin-1-ylmethyl}piperidine-1-carboxylic acid]
